Columns and labels:
galium [1] = assay: Test C postemergence; assay type: in vivo, Galium aparine; settings: for Galium plant response rating: scale 0 to 100
Excerpt: (§1) Seeds of plant species selected from blackgrass (Alopecurus myosuroides), ryegrass, Italian (Italian ryegrass, Lolium multiflorum), wheat (winter wheat, Triticum aestivum), galium (catchweed bedstraw, Galium aparine), corn (Zea mays), crabgrass, large (large crabgrass, Digitaria sanguinalis), foxtail, giant (giant foxtail, Setaria faberii), johnsongrass (Sorghum halepense), lambsquarters (Chenopodium album), morningglory (Ipomoea coccinea), nutsedge, yellow (yellow nutsedge, Cyperus esculentus), pigweed (redroot pigweed, Amaranthus retroflexus), ragweed (common ragweed, Ambrosia elation), soybean (Glycine max), barnyardgrass (Echinochloa crus-galli), oilseed rape (Brassica napus), waterhemp (common waterhemp, Amaranthus rudis), oat, wild (wild oat, Avena fatua), kochia (Kochia scoparia), Surinam grass (Brachiaria decumbens), foxtail, green (green foxtail, Setaria viridis), goosegrass (Eleusine indica), bromegrass, downy (downy bromegrass, Bromus tectorum), nightshade (eastern black nightshade, Solanum ptycanthum), cocklebur (common cocklebur, Xanthium strumarium), cupgrass, woolly (woolly cupgrass, Eriochloa villosa), bermudagrass (Cynodon dactylon), sunflower, (common oilseed sunflower, Helianthus annuus), Russian thistle (Salsola kali), and velvetleaf (Abutilon theophrasti) were planted into a blend of loam soil and sand and treated preemergence with test chemicals formulated in a non-phytotoxic solvent mixture which included a surfactant.
(§2) At the same time, plants selected from these crop and weed species and also chickweed (common chickweed, Stellaria media), canarygrass (littleseed canarygrass, Phalaris minor), and deadnettle (henbit deadnettle, Lamium amplexicaule), were planted in pots containing Redi-Earth® planting medium (Scotts Company, 14111 Scottslawn Road, Marysville, Ohio 43041) comprising spaghnum peat moss, vermiculite, wetting agent and starter nutrients and treated with postemergence applications of test chemicals formulated in the same manner. Plants ranged in height from 2 to 18 cm (1- to 4-leaf stage) for postemergence treatments. Treated plants and controls were maintained in a greenhouse for 13 to 15 days, after which time all species were compared to controls and visually evaluated. Plant response ratings, summarized in Table C, are based on a scale of 0 to 100 where 0 is no effect and 100 is complete control. A dash (-) response means no test result.

foxtail, giant [2] = assay: Test C postemergence; assay type: in vivo, Setaria faberii; settings: for Foxtail, Giant plant response rating: scale 0 to 100
Excerpt: as §1, §2

corn [3] = assay: Test A postemergence; assay type: in vivo, Zea mays
Method in brief: (§3)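 Seeds were sown in a loam soil–sand blend and given a directed soil spray preemergence; postemergence plants at 2–10 cm, one- to two-leaf stage, were sprayed with compound in non-phytotoxic solvent with surfactant. After about 10 days in a greenhouse, injury was visually rated against untreated controls (0 = no effect, 100 = complete control).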

nutsedge, yellow = assay: Test C preemergence; assay type: in vivo, Cyperus esculentus; settings: for Plant response rating (scale of 0 to 100), Nutsedge, Yellow: Preemergence, 250 g ai/ha; for Nutsedge, Yellow plant response rating / Plant response rating, Nutsedge, Yellow: preemergence; for Plant response rating, Nutsedge, Yellow: 62 g ai/ha, scale 0 to 100, 0 = no effect, 100 = complete control
Method in brief: (§4)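 In this greenhouse assay, seeded soil (loam plus sand) or emerged seedlings in peat-vermiculite medium were treated with formulated compound. Roughly two weeks later (13–15 days), each species was scored visually relative to controls, from 0 for no effect to 100 for complete control.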

crabgrass, large [4] = assay: Test A preemergence; assay type: in vivo, Digitaria sanguinalis; settings: 0 to 100 scale
Method in brief: as §3

morningglory [5] = assay: Test C postemergence; assay type: in vivo, Ipomoea coccinea; settings: for Morningglory plant response rating: scale 0 to 100
Excerpt: as §1, §2

blackgrass = assay: Test C postemergence; assay type: in vivo, Alopecurus myosuroides; settings: for Blackgrass plant response rating: scale 0 to 100
Excerpt: as §1, §2

ryegrass, Italian = assay: Test C preemergence; assay type: in vivo, Lolium multiflorum; settings: for Plant response rating (scale of 0 to 100), Ryegrass, Italian: Preemergence, 250 g ai/ha; for Ryegrass, Italian plant response rating / Plant response rating, Ryegrass, Italian: preemergence; for Plant response rating, Ryegrass, Italian: 62 g ai/ha, scale 0 to 100, 0 = no effect, 100 = complete control
Method in brief: as §4

crabgrass, large [6] = assay: Test A postemergence; assay type: in vivo, Digitaria sanguinalis
Method in brief: as §3

corn [7] = assay: Test C preemergence; assay type: in vivo, Zea mays; settings: for Plant response rating (scale of 0 to 100), Corn: Preemergence, 250 g ai/ha; for Corn plant response rating / Plant response rating, Corn: preemergence; for Plant response rating, Corn: 62 g ai/ha, scale 0 to 100, 0 = no effect, 100 = complete control
Excerpt: as §1, §2

foxtail, giant [8] = assay: Test A postemergence; assay type: in vivo, Setaria faberii
Method in brief: as §3

galium [9] = assay: Test C preemergence; assay type: in vivo, Galium aparine; settings: for Plant response rating (scale of 0 to 100), Galium: Preemergence, 250 g ai/ha; for Galium plant response rating / Plant response rating, Galium: preemergence; for Plant response rating, Galium: 62 g ai/ha, scale 0 to 100, 0 = no effect, 100 = complete control
Excerpt: as §1, §2

morningglory [10] = assay: Test A postemergence; assay type: in vivo, Ipomoea spp.
Method in brief: as §3

wheat = assay: Test A preemergence; assay type: in vivo, Triticum aestivum
Method in brief: as §3

[11] = postemergence, 250 g ai/ha, scale 0 to 100 (0 no effect, 100 complete control)
[12] = postemergence, 62 g ai/ha, scale 0 to 100, 0 no effect, 100 complete control
[13] = postemergence, 125 g ai/ha, scale 0 to 100, 0 no effect, 100 complete control
[14] = Postemergence, 500 g ai/ha, visual rating after approx. 10 days, 0 to 100 scale (0 no effect, 100 complete control)
[15] = postemergence, 125 g ai/ha, about 10 days, visual rating on 0 to 100 scale (0 no effect, 100 complete control)
[16] = 31 g ai/ha, scale 0 to 100 (0 no effect, 100 complete control), 13 to 15 days
[17] = 125 g ai/ha, scale 0 to 100, 0 is no effect, 100 is complete control
[18] = preemergence, 500 g ai/ha, visual injury after approx. 10 days, 0 to 100 scale (0 no effect, 100 complete control)
[19] = Postemergence, 1000 g ai/ha, visual rating after approx. 10 days, 0 to 100 scale (0 no effect, 100 complete control)

Q: With `CCc1cc(C(=O)NOC(C)C)nn1Cc1cccc(OC(F)(F)F)c1` [Compound 70] as the compound, how does the “Galium plant response rating” value (galium [1]; Postemergence, 31 g ai/ha) read?
A: 70

Q: And the “Plant response rating, Galium” value (galium [1]; [11])?
A: 90

Q: And the “Plant response rating, Galium” value (galium [1]; [12])?
A: 70

Q: And the “Plant response rating, Galium” value (galium [1]; [13])?
A: 75

Q: And the “Foxtail, Giant plant response rating” value (foxtail, giant [2]; Postemergence, 31 g ai/ha)?
A: 5

Q: What about the “Plant response rating, Foxtail, Giant” value (foxtail, giant [2]; [11]) of the same compound?
A: 25

Q: What about the “Plant response rating, Foxtail, Giant” value (foxtail, giant [2]; [12]) of the same compound?
A: 10

Q: What about the “Plant response rating, Foxtail, Giant” value (foxtail, giant [2]; [13]) of the same compound?
A: 15

Q: And the “Corn plant response rating” value (corn [3]; [14])?
A: 70

Q: What about the “Corn plant response rating” value (corn [3]; [15]) of the same compound?
A: 60

Q: What about the “Plant response rating (scale of 0 to 100), Nutsedge, Yellow” value (nutsedge, yellow) of the same compound?
A: 85

Q: And the “Nutsedge, Yellow plant response rating” value (nutsedge, yellow; [16])?
A: 0

Q: What about the “Plant response rating, Nutsedge, Yellow” value (nutsedge, yellow; 13 to 15 days) of the same compound?
A: 65

Q: What about the “Nutsedge, Yellow plant response rating” value (nutsedge, yellow; [17]) of the same compound?
A: 70

Q: What about the “Crabgrass, Large plant response rating” value (crabgrass, large [4]; Preemergence, 500 g ai/ha, 0 no effect, 100 complete control) of the same compound?
A: 100

Q: What about the “Crabgrass, Large plant response rating” value (crabgrass, large [4]; preemergence, 125 g ai/ha, visual injury, approx. 10 days) of the same compound?
A: 100

Q: What about the “Morningglory plant response rating” value (morningglory [5]; Postemergence, 31 g ai/ha) of the same compound?
A: 5

Q: What about the “Plant response rating, Morningglory” value (morningglory [5]; [11]) of the same compound?
A: 85

Q: And the “Plant response rating, Morningglory” value (morningglory [5]; [12])?
A: 45

Q: And the “Plant response rating, Morningglory” value (morningglory [5]; [13])?
A: 75

Q: And the “Blackgrass plant response rating” value (blackgrass; Postemergence, 31 g ai/ha)?
A: 0

Q: What about the “Plant response rating, Blackgrass” value (blackgrass; [11]) of the same compound?
A: 25

Q: What about the “Plant response rating, Blackgrass” value (blackgrass; [12]) of the same compound?
A: 5

Q: What about the “Plant response rating (scale of 0 to 100), Ryegrass, Italian” value (ryegrass, Italian) of the same compound?
A: 80

Q: What about the “Ryegrass, Italian plant response rating” value (ryegrass, Italian; [16]) of the same compound?
A: 20

Q: And the “Plant response rating, Ryegrass, Italian” value (ryegrass, Italian; 13 to 15 days)?
A: 30

Q: What about the “Ryegrass, Italian plant response rating” value (ryegrass, Italian; [17]) of the same compound?
A: 60

Q: And the “Crabgrass, Large plant response rating” value (crabgrass, large [6]; [14])?
A: 90

Q: And the “Crabgrass, Large plant response rating” value (crabgrass, large [6]; [15])?
A: 90

Q: And the “Plant response rating (scale of 0 to 100), Corn” value (corn [7])?
A: 85

Q: And the “Corn plant response rating” value (corn [7]; [16])?
A: 40

Q: And the “Plant response rating, Corn” value (corn [7]; 13 to 15 days)?
A: 60

Q: What about the “Corn plant response rating” value (corn [7]; [17]) of the same compound?
A: 70

Q: And the “Foxtail, Giant plant response rating” value (foxtail, giant [8]; [14])?
A: 90

Q: What about the “Foxtail, Giant plant response rating” value (foxtail, giant [8]; [15]) of the same compound?
A: 90

Q: And the “Plant response rating (scale of 0 to 100), Galium” value (galium [9])?
A: 98

Q: What about the “Galium plant response rating” value (galium [9]; [16]) of the same compound?
A: 65

Q: What about the “Plant response rating, Galium” value (galium [9]; 13 to 15 days) of the same compound?
A: 95

Q: And the “Galium plant response rating” value (galium [9]; [17])?
A: 98

Q: What about the “Morningglory plant response rating” value (morningglory [10]; [14]) of the same compound?
A: 100

Q: What about the “Morningglory plant response rating” value (morningglory [10]; [15]) of the same compound?
A: 100

Q: And the “Wheat plant response rating” value (wheat; preemergence, 125 g ai/ha, visual injury, 0 to 100 scale, approx. 10 days)?
A: 50

Q: And the “Wheat plant response rating” value (wheat; [18])?
A: 30

Q: What does the source list for `Cc1cc(C(=O)NCC(F)(F)F)nn1Cc1ccnc(C(F)(F)F)c1` [Compound 74]?
A: Galium plant response rating (galium [1]; Postemergence, 31 g ai/ha): 60; Galium plant response rating (galium [1]; postemergence, 62 g ai/ha): 60; Plant response rating, Galium (galium [1]; [11]): 85; Plant response rating, Galium (galium [1]; [13]): 80; Foxtail, Giant plant response rating (foxtail, giant [2]; Postemergence, 31 g ai/ha): 5; Foxtail, Giant plant response rating (foxtail, giant [2]; postemergence, 62 g ai/ha): 10; Plant response rating, Foxtail, Giant (foxtail, giant [2]; [11]): 25; Plant response rating, Foxtail, Giant (foxtail, giant [2]; [13]): 10; Corn plant response rating (corn [3]; [19]): 100; Plant response rating (scale of 0 to 100), Nutsedge, Yellow (nutsedge, yellow): 98; Nutsedge, Yellow plant response rating (nutsedge, yellow; [16]): 15; Plant response rating, Nutsedge, Yellow (nutsedge, yellow; 13 to 15 days): 60; Nutsedge, Yellow plant response rating (nutsedge, yellow; [17]): 80; Crabgrass, Large plant response rating (crabgrass, large [4]; Preemergence, 1000 g ai/ha, 0 no effect, 100 complete control): 100; Morningglory plant response rating (morningglory [5]; Postemergence, 31 g ai/ha): 70; Morningglory plant response rating (morningglory [5]; postemergence, 62 g ai/ha): 75; Plant response rating, Morningglory (morningglory [5]; [11]): 80; Plant response rating, Morningglory (morningglory [5]; [13]): 75; Blackgrass plant response rating (blackgrass; Postemergence, 31 g ai/ha): 0; Blackgrass plant response rating (blackgrass; postemergence, 62 g ai/ha): 0; Plant response rating, Blackgrass (blackgrass; [11]): 5; Plant response rating, Blackgrass (blackgrass; [13]): 5; Plant response rating (scale of 0 to 100), Ryegrass, Italian (ryegrass, Italian): 80; Ryegrass, Italian plant response rating (ryegrass, Italian; [16]): 5; Plant response rating, Ryegrass, Italian (ryegrass, Italian; 13 to 15 days): 5; Ryegrass, Italian plant response rating (ryegrass, Italian; [17]): 50; Crabgrass, Large plant response rating (crabgrass, large [6]; [19]): 100; Plant response rating (scale of 0 to 100), Corn (corn [7]): 98; Corn plant response rating (corn [7]; [16]): 10; Plant response rating, Corn (corn [7]; 13 to 15 days): 60; Corn plant response rating (corn [7]; [17]): 75; Foxtail, Giant plant response rating (foxtail, giant [8]; [19]): 90; Plant response rating (scale of 0 to 100), Galium (galium [9]): 100; Galium plant response rating (galium [9]; [16]): 85; Plant response rating, Galium (galium [9]; 13 to 15 days): 100; Galium plant response rating (galium [9]; [17]): 100; Morningglory plant response rating (morningglory [10]; [19]): 100; Wheat plant response rating (wheat; Preemergence, 1000 g ai/ha, 0 to 100 scale, 0 no effect, 100 complete control): 100; Wheat plant response rating (wheat; [18]): 30

Source: patent publication US20150105252A1, “SUBSTITUTED PYRAZOLES AS HERBICIDES” (E I DU PONT DE NEMOURS AND COMPANY, priority 2013, published 2015)
